Results published in US6808924B1, “Mouse mammary tumor lines expressing estrogen and progesterone receptors” (priority 2000, dated 2004).

Key:
MC4-L1 cell line = experiment: In vitro hormone response, 3H-thymidine uptake, MC4-L1; format: cell-based, mouse
Experimental: (§1) 3H-Thymidine uptake: In a 96 well microplate, 0.1 ml/well of a cell suspension were seeded in EM at a concentration of 10^5 cell/ml. After attachment (24 hs), the cells were incubated for 72 hs with the experimental solutions to be tested. Half the media was changed every 24 hs. The cells were incubated with 0.4 μCi of ^3H-thymidine (specific activity: 20 Ci/mmol) for 24 hs, trypsinized and harvested in a cell harvester. Filters were counted in a liquid scintillation counter. Assays were performed in octuplicates and mean and standard deviation were calculated for each solution tested. The difference between controls and experimental groups were analyzed by ANOVA followed by Dunnet's t test between groups.

MC4-L2 cell line = experiment: In vitro hormone response, 3H-thymidine uptake, MC4-L2; format: cell-based, mouse
Experimental: as §1

MC7-L1 cell line = experiment: In vitro hormone response, 3H-thymidine uptake, MC7-L1; format: cell-based, mouse; set-up: In vitro proliferative response: key to the marks not given beside the values
Experimental: as §1

MC4-L1 tumors = experiment: In vivo hormone response, MC4-L1 tumors in BALB/c female mice; set-up: species or system mouse; conditions: for effect on tumor size (tumor regression): MC4-L1 tumors about 50 mm2, no MPA, ZK 10 mg/Kg or RU 6.5 mg/Kg daily sc, E2 5 mg silastic pellet sc
Experimental: (§2) Cells were trypsinized and resuspended in 10 fold excess of culture medium and 10% FCS. After centrifugation cells were resuspended in serum-free medium and […] were injected sc in a final volume of 0.1 ml using a 21 gauge needle in the right inguinal flank of BALB/c mice which have been inoculated contralaterally with 40 mg MPA depot (Gador Laboratories, Buenos Aires). The mice were examined every three days for the development of palpable tumors. At the end of the experiment the animals were killed and the tumors excised. Complete autopsies were performed to detect the presence of metastases. Animal care was in agreement with institutional guidelines. Cells from different lines were inoculated into BALB/c female mice treated or not with MPA as described previously. If tumors grew similarly in treated and untreated animals, the tumors growing in untreated mice were used for the next passage. Tumors were transplanted by trocar sc in the right inguinal flank of 2 month old, BALB/c female mice. Hormone treatments were initiated when the tumors reached around 50 mm2. RU (6.5 mg/Kg body weight) and ZK (10 mg/Kg body weight) were inoculated as daily sc injections. E2 was administered as 5 mg silastic pellets implanted sc. Tumor growth was measured every 2-3 days.

MC4-L3 tumors = experiment: In vivo hormone response, MC4-L3 tumors in BALB/c female mice; set-up: species or system mouse; conditions: for effect on tumor size (tumor regression): MC4-L3 tumors about 50 mm2, ZK 10 mg/Kg or RU 6.5 mg/Kg daily sc, E2 5 mg silastic pellet sc
Experimental: as §2

MC7-L1 tumors = experiment: In vivo hormone response, MC7-L1 tumors in BALB/c female mice; set-up: species or system mouse; conditions: for effect on tumor size (tumor regression): MC7-L1 tumors, ZK 10 mg/Kg or RU 6.5 mg/Kg daily sc, E2 5 mg silastic pellet sc
Experimental: as §2

MC4-L3 cell line = experiment: In vitro hormone response, 3H-thymidine uptake, MC4-L3; format: cell-based, mouse
Experimental: as §1

MC4-L2 tumors = experiment: In vivo hormone response, MC4-L2 tumors in BALB/c female mice; set-up: species or system mouse
Experimental: as §2

[1] = system: C4-HD primary and secondary cultures; conditions: primary and secondary cultures of C4-HD (Dran G. et al. 1995); cited from earlier work
[2] = MC4-L1, early passages (before passage number 16)

## CN(C)c1ccc([C@H]2C[C@]3(C)[C@@H](CC[C@]3(O)CCCO)[C@@H]3CCC4=CC(=O)CCC4=C32)cc1 [ZK, onapristone]
MC4-L1 cell line; MC4-L1, μM concentrations
  effect on cell proliferation (3H-thymidine uptake): stimulated cell proliferation
MC4-L2 cell line; MC4-L2, about 0.1 to about 1 uM
  effect on cell proliferation (3H-thymidine uptake): in some experiments showed an inhibitory effect
MC7-L1 cell line; MC7-L1
  effect on thymidine uptake: did not modify thymidine uptake
MC4-L1 tumors
  effect on tumor size (tumor regression): showed tumor regression
MC4-L3 tumors
  effect on tumor size (tumor regression): Complete regression
MC7-L1 tumors
  effect on tumor size (tumor regression): not inhibited

## TGFβ1: TGFβ1
MC4-L1 cell line; MC4-L1, later passages
  effect on cell proliferation (3H-thymidine uptake): significant inhibition of cell growth
MC4-L3 cell line; MC4-L3
  effect on cell proliferation (3H-thymidine uptake): inhibited
MC7-L1 cell line; MC7-L1
  effect on thymidine uptake: had no effects

## CC(=O)O[C@]1(C(C)=O)CC[C@H]2[C@@H]3C[C@H](C)C4=CC(=O)CC[C@]4(C)[C@H]3CC[C@@]21C [MPA, medroxyprogesterone acetate]
MC4-L1 cell line; [2]
  effect on cell proliferation (3H-thymidine uptake): stimulatory effect
MC4-L1 cell line; MC4-L1, later passages
  effect on cell proliferation (3H-thymidine uptake): only evident (p<0.05) with uM concentrations
MC4-L2 cell line; MC4-L2, 0.1 nM to about 10 nM
  effect on cell proliferation (3H-thymidine uptake): significant stimulatory effect
MC7-L1 cell line; MC7-L1, about 1 nM to about 1 uM
  effect on cell growth (3H-thymidine uptake): significantly stimulates cell growth
MC4-L1 tumors; MC4-L1 inoculated sc, mice treated or not with 40 mg MPA depot sc
  MPA dependence of tumor growth: same pattern of growth that was observed in the parental tumor line
MC4-L1 tumors; MC4-L1 subculture 70, 3rd passage
  MPA dependence of tumor growth: MPA-dependent
MC4-L1 tumors; MC4-L1 subculture 70, next passage
  MPA dependence of tumor growth: growth was favored
MC4-L2 tumors; MC4-L2, MPA-treated vs non-treated mice
  MPA dependence of tumor growth: PI pattern of growth
MC4-L3 tumors; MC4-L3, MPA-treated vs non-treated mice
  MPA dependence of tumor growth: PD pattern
MC7-L1 tumors; MC7-L1, MPA-treated vs non-treated mice
  MPA dependence of tumor growth: PI pattern of growth
[1]
  effect on cell proliferation: stimulates directly cell proliferation

## C[C@]12CC[C@@H]3c4ccc(O)cc4CC[C@H]3[C@@H]1CC[C@@H]2O [E2, estradiol]
MC4-L1 cell line; MC4-L1, Table 2 grade
  In vitro proliferative response: ±
MC4-L2 cell line; MC4-L2, Table 2 grade
  In vitro proliferative response: +
MC4-L3 cell line; MC4-L3, Table 2 grade
  In vitro proliferative response: −
MC7-L1 cell line; MC7-L1
  concentration at which the higher values of proliferation were obtained: about 1 nM
MC7-L1 cell line; MC7-L1, Table 2 grade
  In vitro proliferative response: ++
MC7-L1 tumors
  effect on tumor size (tumor regression): not inhibited

## CC#C[C@]1(O)CC[C@H]2[C@@H]3CCC4=CC(=O)CCC4=C3[C@@H](c3ccc(N(C)C)cc3)C[C@@]21C [RU, mifepristone]
MC4-L1 cell line; [2]
  effect on cell proliferation (3H-thymidine uptake): agonist effect
MC4-L2 cell line; MC4-L2
  effect on cell proliferation (3H-thymidine uptake): did not induce any change
MC7-L1 cell line; MC7-L1, about 0.1 to about 1 μM
  effect on cell proliferation (3H-thymidine uptake): stimulatory effect
MC4-L1 tumors
  effect on tumor size (tumor regression): Only animals treated with ZK showed tumor regression
MC4-L2 tumors; MC4-L2 tumors about 50 mm2, RU 6.5 mg/Kg daily sc
  effect on tumor size (tumor regression): complete regression
MC4-L3 tumors
  effect on tumor size (tumor regression): Complete regression
MC7-L1 tumors
  effect on tumor size (tumor regression): not inhibited
